What all share (test): Kinase selectivity, Mobility shift assay
Common to all, as to assay type: biochemical

The target of one test is ZAP70 (Homo sapiens (Human), UniProt P43403). As to the method:
(§1) Object: In this assay, the inhibitory activity of the test substance on the kinases listed in Table 3 was determined, and therefore the selectivity of the present compound was determined.
(§2) Except for the BRAF V600E kinase in Table 3, the Mobility shift assay was used for other kinases.
(§3) 1. Preparation of Agents:
(§4) • 1.1 1-fold kinase buffer without MnCl2: 50 mM HEPES, pH 7.5, 0.0015% Brij-35, 10 mM MgCl2, 2 mM DTT. • 1.2 1-fold kinase buffer with MnCl2: 50 mM HEPES, pH 7.5, 0.0015% Brij-35, 10 mM MgCl2, 10 mM MnCl2, 2 mM DTT. • 1.3 Termination solution: 100 mM HEPES, pH 7.5, 0.0015% Brij-35, 0.2% Coating Reagent#3, 50 mM EDTA. • 1.4 2.5-fold kinase solution: The kinase was added to the 1-fold kinase buffer to form a 2.5-fold kinase solution. • 1.5 2.5-fold substrate solution: FAM fluorescence-labelled polypeptide and ATP were added to the 1-fold kinase buffer to form a 2.5-fold substrate solution. 2. Preparation of 5-fold compound
(§5) The final test concentration of the compound was 10 μM at maximum. Firstly, a 50-fold concentration (i.e. 500 μM) was prepared with 100% DMSO. The compound was diluted with 100% DMSO by 5 folds at 5 concentrations (successively 500 μM, 100 μM, 20 μM, 4 μM, and 0.8 μM). After diluting with 1-fold kinase buffer by 10 folds, 5 μl of the samples were transferred to a 384-well reaction plate. Two negative control wells and two positive control wells were set at each line respectively. Replication was made in a 96-well plate in five concentrations of 5-fold compound. 10% DMSO was added to the positive control well, and 5 μl of EDTA (250 mM) was added to the negative control well.
(§6) • 3.1 To the 384-well reaction plate was added 5-fold compound dissolved in 10% DMSO at 5 μl/well. • 3.2 To the 384-well reaction plate was added 2.5-fold kinase solution at 10 μl/well. The plate was incubated at room temperature for 10 mins. • 3.3 To the 384-well reaction plate was added 2.5-fold substrate solution at 10 μl/well. The plate was incubated at 28° C. for a certain period. • 3.4 25 μl termination solution was added to terminate the reaction. The conversion was read from Caliper. 4. Inhibition rate calculation Inhibition rate (%)=(maximum−sample value)/(maximum−minimum)×100 • wherein: • maximum refers to the conversion at the DMSO control well, • minimum refers to the conversion at the control well without kinase. Lanthascreen Analysis Method for the BRAF V600E Kinase 1. Preparation of Agents: • 1.1 2-fold kinase solution: using 1-fold kinase buffer to prepare 2-fold kinase solution, with a final concentration of 0.35 nM of BRAFV600E; • 1.2 4-fold substrate solution: using 1-fold kinase buffer to prepare 4-fold substrate solution, with a final substrate solution concentration of 0.2 μM of Fluorescein-MAP2K1 and 1.5 μM of ATP. 2. Preparation of 4-fold compound • The final test concentration of the compound was 10 μM at maximum. Firstly, a 100-fold concentration (i.e. 1000 μM) was prepared with 100% DMSO. The compound was diluted with 100% DMSO by 5 folds at 5 concentrations. The compound series was identical to that in the Mobility Shift Assay. After diluting with 1-fold kinase buffer by 25 folds, the resulting samples were shaked and mixed evenly on a plate-shaker for 10 mins. 3. Procedure • 3.1 To the 384-well reaction plate was added 4-fold compound dissolved in 10% DMSO at 2.5 µl/well; • 3.2 To the 384-well reaction plate was added 2-fold kinase solution at 5 μl/well, and to the negative control wells were added 1-fold kinase buffer. The samples were shaked, mixed evenly, and kept standing at room temperature. • 3.3 To the 384-well reaction plate was added 4-fold substrate solution at 2.5 μl/well. The plate was reacted, shaked, mixed evenly and incubated at room temperature for one hour; • 3.4 Reaction result detection: 2-fold detection solution was prepared, with a final concentration of 2 nM of Antibody and 10 mM of EDTA. 10 μl of the detection solution was transferred to the 384-well plate to terminate the reaction. […]

A further test concerns the target MAPKAPK2 (Homo sapiens (Human), UniProt P49137). As to the method: as §1, §2, §3, §4, §5, §6
The next test has as its target EGFR (Homo sapiens (Human), UniProt P00533). The protocol:
as §1, §2, §3, §4, §5, §6

A further test addresses SYK (Homo sapiens (Human), UniProt P43405). The protocol: as §1, §2, §3, §4, §5, §6
The next test addresses PIM1 (Homo sapiens (Human), UniProt P11309). The protocol: as §1, §2, §3, §4, §5, §6
Another test concerns the target p38a (Homo sapiens (Human), UniProt Q16539). The protocol:
as §1, §2, §3, §4, §5, §6

For the next test, the target named is AKT1 (Homo sapiens (Human), UniProt P31749). As to the method:
as §1, §2, §3, §4, §5, §6

A further test deals with MARK1 (Homo sapiens (Human), UniProt Q9P0L2). As to the method:
as §1, §2, §3, §4, §5, §6

A further test deals with KDR (Homo sapiens (Human), UniProt P35968). As to the method: as §1, §2, §3, §4, §5, §6
A further test concerns the target SRC (Homo sapiens (Human), UniProt P12931). The protocol:
as §1, §2, §3, §4, §5, §6

Another test concerns the target Tie2 (Homo sapiens (Human), UniProt Q02763). The protocol:
as §1, §2, §3, §4, §5, §6

For another test, the target named is JNK2 (Homo sapiens (Human), UniProt P45984). As to the method: as §1, §2, §3, §4, §5, §6
In a further test the target is AMPKa1 (Homo sapiens (Human), UniProt Q13131). The protocol: as §1, §2, §3, §4, §5, §6
For a further test, the target named is IKKB (Homo sapiens (Human), UniProt O14920). The protocol:
as §1, §2, §3, §4, §5, §6

The next test deals with PKCa (Homo sapiens (Human), UniProt P17252). The protocol:
as §1, §2, §3, §4, §5, §6

The target in the next test is FGFR1 (Homo sapiens (Human), UniProt P11362). The protocol: as §1, §2, §3, §4, §5, §6
The target in another test is CK1d (Homo sapiens (Human), UniProt P48730). As to the method: as §1, §2, §3, §4, §5, §6
Another test deals with P70s6k (Homo sapiens (Human), UniProt P23443). The protocol: as §1, §2, §3, §4, §5, §6
For another test, the target named is AURA (Homo sapiens (Human), UniProt O14965). As to the method:
as §1, §2, §3, §4, §5, §6

SMILES strings stand for the structures.

AKT1, sequence (P31749 whole entry, species assumed): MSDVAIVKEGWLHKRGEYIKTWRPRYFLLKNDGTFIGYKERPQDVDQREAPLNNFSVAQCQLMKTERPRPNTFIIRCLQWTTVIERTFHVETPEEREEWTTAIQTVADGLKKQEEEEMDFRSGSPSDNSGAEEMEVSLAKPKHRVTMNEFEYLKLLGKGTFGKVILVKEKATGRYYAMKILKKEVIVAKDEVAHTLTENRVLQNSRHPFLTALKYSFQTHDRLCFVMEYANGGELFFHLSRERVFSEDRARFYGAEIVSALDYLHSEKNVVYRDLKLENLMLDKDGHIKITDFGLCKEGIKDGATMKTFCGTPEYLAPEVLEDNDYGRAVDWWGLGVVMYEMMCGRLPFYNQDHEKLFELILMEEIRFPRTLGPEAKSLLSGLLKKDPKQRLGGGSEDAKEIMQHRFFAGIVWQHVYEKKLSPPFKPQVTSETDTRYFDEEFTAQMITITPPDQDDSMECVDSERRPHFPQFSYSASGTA
SRC, sequence (P12931 whole entry, looked up, species assumed): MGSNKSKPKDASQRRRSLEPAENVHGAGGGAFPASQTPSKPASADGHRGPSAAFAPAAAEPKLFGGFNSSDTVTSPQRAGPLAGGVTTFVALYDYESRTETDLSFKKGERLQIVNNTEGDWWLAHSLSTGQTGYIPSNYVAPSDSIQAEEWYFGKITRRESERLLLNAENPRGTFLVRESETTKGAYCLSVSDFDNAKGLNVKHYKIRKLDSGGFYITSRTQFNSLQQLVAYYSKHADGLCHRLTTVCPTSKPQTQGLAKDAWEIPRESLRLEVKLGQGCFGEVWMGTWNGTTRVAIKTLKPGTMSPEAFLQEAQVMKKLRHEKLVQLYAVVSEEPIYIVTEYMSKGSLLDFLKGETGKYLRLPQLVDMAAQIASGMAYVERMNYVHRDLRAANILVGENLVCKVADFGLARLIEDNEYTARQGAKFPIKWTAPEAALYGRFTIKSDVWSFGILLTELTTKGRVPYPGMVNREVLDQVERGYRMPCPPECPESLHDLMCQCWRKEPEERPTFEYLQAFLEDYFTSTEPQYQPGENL
PIM1, sequence (P11309 whole entry, species assumed): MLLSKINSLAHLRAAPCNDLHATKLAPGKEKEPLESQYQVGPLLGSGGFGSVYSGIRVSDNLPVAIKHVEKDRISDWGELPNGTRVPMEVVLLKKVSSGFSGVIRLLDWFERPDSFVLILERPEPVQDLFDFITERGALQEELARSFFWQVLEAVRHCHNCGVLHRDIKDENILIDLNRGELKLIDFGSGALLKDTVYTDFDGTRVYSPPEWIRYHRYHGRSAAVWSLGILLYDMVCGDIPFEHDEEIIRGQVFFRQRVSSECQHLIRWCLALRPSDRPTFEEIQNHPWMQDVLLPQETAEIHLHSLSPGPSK
p38a, sequence (Q16539 whole entry): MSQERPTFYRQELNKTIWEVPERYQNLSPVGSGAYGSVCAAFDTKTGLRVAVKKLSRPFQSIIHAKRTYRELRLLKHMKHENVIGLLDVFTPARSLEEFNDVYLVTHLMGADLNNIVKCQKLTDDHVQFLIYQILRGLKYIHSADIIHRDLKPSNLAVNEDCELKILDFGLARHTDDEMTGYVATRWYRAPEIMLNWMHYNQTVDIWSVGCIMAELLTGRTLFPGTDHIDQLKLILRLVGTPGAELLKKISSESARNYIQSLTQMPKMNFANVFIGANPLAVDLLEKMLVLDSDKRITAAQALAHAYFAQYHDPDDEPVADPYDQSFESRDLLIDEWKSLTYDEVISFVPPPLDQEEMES
EGFR, sequence (P00533 25-1210, species assumed): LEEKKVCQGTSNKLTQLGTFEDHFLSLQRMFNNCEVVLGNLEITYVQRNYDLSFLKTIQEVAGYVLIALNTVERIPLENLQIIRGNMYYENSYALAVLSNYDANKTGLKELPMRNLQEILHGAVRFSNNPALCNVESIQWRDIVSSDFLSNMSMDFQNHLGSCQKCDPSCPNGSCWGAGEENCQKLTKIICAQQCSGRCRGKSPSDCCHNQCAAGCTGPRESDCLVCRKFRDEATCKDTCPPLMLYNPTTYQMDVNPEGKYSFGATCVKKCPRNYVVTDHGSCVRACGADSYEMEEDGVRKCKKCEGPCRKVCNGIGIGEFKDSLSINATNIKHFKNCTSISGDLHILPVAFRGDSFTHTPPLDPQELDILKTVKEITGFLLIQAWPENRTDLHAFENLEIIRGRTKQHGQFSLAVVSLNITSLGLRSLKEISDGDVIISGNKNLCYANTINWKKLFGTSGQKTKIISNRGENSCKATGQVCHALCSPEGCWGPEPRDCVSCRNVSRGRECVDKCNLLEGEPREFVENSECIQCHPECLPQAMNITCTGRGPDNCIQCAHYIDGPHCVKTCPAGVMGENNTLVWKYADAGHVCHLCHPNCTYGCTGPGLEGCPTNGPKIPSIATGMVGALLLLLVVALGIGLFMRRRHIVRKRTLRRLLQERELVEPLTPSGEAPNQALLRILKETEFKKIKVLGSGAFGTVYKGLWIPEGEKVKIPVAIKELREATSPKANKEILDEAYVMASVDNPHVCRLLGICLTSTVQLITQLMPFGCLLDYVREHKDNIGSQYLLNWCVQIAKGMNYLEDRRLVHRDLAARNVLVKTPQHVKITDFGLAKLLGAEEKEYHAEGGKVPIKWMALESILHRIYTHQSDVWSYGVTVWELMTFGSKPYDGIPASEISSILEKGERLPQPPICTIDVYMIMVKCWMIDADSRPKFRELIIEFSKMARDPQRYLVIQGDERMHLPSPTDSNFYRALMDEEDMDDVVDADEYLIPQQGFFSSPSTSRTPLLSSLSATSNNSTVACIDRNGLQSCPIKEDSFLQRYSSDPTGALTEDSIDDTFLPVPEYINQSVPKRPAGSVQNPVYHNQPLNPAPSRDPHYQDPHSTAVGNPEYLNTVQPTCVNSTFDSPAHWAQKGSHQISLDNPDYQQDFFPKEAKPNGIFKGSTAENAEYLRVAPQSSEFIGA
JNK2, sequence (P45984 whole entry, species assumed): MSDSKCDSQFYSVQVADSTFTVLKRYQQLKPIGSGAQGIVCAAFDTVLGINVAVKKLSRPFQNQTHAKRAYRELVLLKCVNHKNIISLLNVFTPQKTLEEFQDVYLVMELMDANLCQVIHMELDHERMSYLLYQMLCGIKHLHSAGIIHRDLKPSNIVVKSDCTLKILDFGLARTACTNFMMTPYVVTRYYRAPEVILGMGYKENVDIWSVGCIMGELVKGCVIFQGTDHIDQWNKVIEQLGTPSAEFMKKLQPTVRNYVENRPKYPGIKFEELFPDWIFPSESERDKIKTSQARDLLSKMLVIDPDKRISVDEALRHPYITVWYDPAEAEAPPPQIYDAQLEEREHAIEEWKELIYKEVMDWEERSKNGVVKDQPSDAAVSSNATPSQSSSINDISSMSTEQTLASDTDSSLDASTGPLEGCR
CK1d, sequence (P48730 whole entry): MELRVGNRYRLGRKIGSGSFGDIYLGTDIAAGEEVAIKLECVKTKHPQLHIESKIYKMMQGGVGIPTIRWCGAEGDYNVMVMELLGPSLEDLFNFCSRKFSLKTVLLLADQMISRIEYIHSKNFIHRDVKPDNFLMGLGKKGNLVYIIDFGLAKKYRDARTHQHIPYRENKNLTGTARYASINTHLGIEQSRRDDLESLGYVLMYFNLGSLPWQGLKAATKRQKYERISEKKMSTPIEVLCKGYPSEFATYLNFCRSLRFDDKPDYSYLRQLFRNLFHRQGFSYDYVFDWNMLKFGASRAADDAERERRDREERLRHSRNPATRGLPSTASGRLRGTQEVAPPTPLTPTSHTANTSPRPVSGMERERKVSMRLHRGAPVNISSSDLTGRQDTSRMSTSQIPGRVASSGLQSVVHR
P70s6k, sequence (P23443 whole entry): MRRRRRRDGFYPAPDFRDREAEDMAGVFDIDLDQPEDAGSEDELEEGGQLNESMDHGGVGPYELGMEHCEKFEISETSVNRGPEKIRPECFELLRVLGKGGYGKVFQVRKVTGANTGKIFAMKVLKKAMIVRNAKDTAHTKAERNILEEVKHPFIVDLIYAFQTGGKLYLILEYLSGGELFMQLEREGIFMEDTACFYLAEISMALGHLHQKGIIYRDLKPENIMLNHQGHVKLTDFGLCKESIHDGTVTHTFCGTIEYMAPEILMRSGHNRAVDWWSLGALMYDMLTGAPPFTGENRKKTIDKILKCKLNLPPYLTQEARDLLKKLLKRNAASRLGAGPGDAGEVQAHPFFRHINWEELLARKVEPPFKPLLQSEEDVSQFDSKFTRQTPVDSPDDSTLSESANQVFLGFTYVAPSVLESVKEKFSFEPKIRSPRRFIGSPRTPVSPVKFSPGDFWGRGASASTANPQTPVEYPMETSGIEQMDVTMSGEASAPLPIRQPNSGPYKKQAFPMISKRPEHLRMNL

Usually IC50 stands for the midpoint of a concentration-inhibition curve. As for `Nc1ccc(-c2ccc3ncc4c(=O)[nH]c(=O)n(-c5cccc(C(F)(F)F)c5)c4c3n2)cn1` [Compound 5, 9-(6-aminopyridin-3-yl)-1-(3-(trifluoromethyl)phenyl)pyrimido[5,4-c][1,5]naphthyridine-2,4(1H,3H)-dione], the IC50 at ZAP70, on MAPKAPK2, on EGFR, at SYK, on PIM1 and on p38a was greater than 10000 nM each time. For the same compound, the IC50 on AKT1 is greater than 10000 nM; at MARK1 it was greater than 10000 nM; at KDR, greater than 10000 nM; on SRC, 842 nM; on Tie2 it was 2430 nM; on JNK2, greater than 10000 nM. Also, the IC50 on AMPKa1, at IKKB, on PKCa, on FGFR1, at CK1d and at P70s6k was greater than 10000 nM each time. The IC50 at AURA is greater than 10000 nM.

The values above are taken from patent publication US9365572B2, “PI3K and/or mTOR inhibitor” (XUANZHU PHARMA CO., LTD., priority 2012, dated 2016).
